Experimental data published in patent publication US20030119904A1, “Acetyl L-carnitine salt with a dicarboxilic organic acid and process for preparing same” (priority 2001, published 2003).
Structures can show the parent of a compound that is named as a salt.

Assays:
[1] = Hygroscopicity: exposure of powder or granules to relative humidity at 25° C. for 24 hours; type: physicochemical
Protocol: By “hygroscopic” is meant herein the bothersome property shown by most of L-carnitine and alkanoyl L-carnitine salts (particularly by their “inner salts”) to undergo, when they occur as powders or granules, significant alteration of their flowability due to their clotting, agglomeration or even deliquescence, following exposure to an environment of relative humidity […] 50-60%, at 25° C., for 24 hours.

[2] = known from prior art / marketed product; cited from earlier work

Compound | hygroscopicity of the isolated solid ([1]; non-hygroscopic = withstands relative humidity of at least 60%, as powder or granules, without clotting, agglomeration or deliquescence) | relative humidity withstood without loss of flowability ([1]; powder or granules) [%] | hygroscopicity (prior art statement) [2]
CC(=O)O[C@H](CC(=O)O)C[N+](C)(C)C.O=C([O-])/C=C/C(=O)O [ALCFH, acetyl L-carnitine acid fumarate] | non-hygroscopic | ≥ 60 | –
C[N+](C)(C)C[C@H](O)CC(=O)O.O=C([O-])/C=C/C(=O)O [L-carnitine acid fumarate] | – | – | non-hygroscopic
CC(=O)O[C@H](CC(=O)[O-])C[N+](C)(C)C [acetyl L-carnitine inner salt] | – | – | high hygroscopicity
